# Measurements from patent US5843481A, “Treatment of proliferative disorders, metastasaes, and drug resistant tumors with vanadate compounds and derivatives or analogues thereof” (priority 1994, dated 1998).
# “Also recorded” adds a separate entry of the source.
# Legend:
# fos = assay: Northern blot analysis of fos mRNA expression in chondrocytes; assay type: cell-based, bovine; conditions: for expression of c-fos: stimulation, 1 hour, bovine chondrocytes, AA 3 μM; for fos expression in response to factors such as IL 1 or arachidonic acid: summary statement
# Experimental: (§1) The cytokine interleukin 1 (IL 1) has been used to identify the intermediate second messengers which regulate the expression of fos and jun.
# In order to elucidate this possibility, the effect of DPI on fos and jun mRNA levels induced by IL 1 was investigated. RNA from chondrocytes treated with IL 1 in the presence and absence of DPI were analyzed by Northern blot analysis using either fos or collagenase cDNA probes.
# Since superoxides are rapidly converted to hydrogen peroxide in the cell by superoxide dismutase, whether hydrogen peroxide could mimic the effect of IL 1 in the induction of fos expression was investigated. RNA was extracted from chondrocytes (Kandel et al. supra) treated with H2 O2 for 30, 60 and 90 minutes and examined by Northern blot analysis using a fos cDNA probe.
# (§2) Bovine articular chondrocytes were isolated and plated as previously described (Kandel R. A. et al. Biochim. Biophys. Acta. 1053, 130-134, 1990). In order to determine the effect of orthovanadate on IL 1 and PMA (phorbol ester) induced responses, chondrocytes were incubated with orthovanadate (100 μM) for 2 hours before stimulation with IL 1 (10 ng/ml) or PMA ([…]). collagenase production was determined by incubating chondrocytes for 24 hours with IL 1 or PMA and the cell conditioned medium was assayed for collagenase activity using an ELISA procedure as described previously (Kandel et al. supra) PLA2 activity was measured by incorporating ^3 H-arachidonic acid (^3 H-AA) into the cells and then incubating the cells with medium containing 1 mg/ml BSA, either alone or in the presence of IL 1 or PMA, for 10 min. as previously described (Conquer, J. A. […], Biochim. Biophys. Acta. 1134, 1-6). The amount of ^3 H-AA liberated into the supernatant was determined. To measure PGE2 production, chondrocytes were incubated for 6 hours in Ham's F12 medium, either alone or with IL 1 or PMA. The supernatant was analyzed by RIA using an antibody specific for PGE2 (Dr. S. A. Jones, Mount Sinai Hospital, Toronto, Can.). In order to examine the expression of c-fos and c-jun, chondrocytes were incubated for 1 hour in the presence of IL-1, PMA or AA (3 μM). Chondrocytes were washed in PBS and the total RNA extracted as previously described (Cruz. et al, 1991, Biochem. J. 277, 327-330). RNA samples were run on formaldehyde agarose gels and transferred to nylon membrane for northern analysis using cDNA probes for c-fos and c-jun.
# Cells were also incubated as described above with 20 mM N-acetylcyateine for 20 min. and then incubated with IL 1 for an additional 1 or 12 hours. The RNA was extracted and examined by Northern blot analysis using cDNA probes for c-fos and collagenase.
# jun = assay: Northern blot analysis of jun mRNA expression in chondrocytes; assay type: cell-based, bovine; conditions: for expression of c-jun: stimulation, 1 hour, bovine chondrocytes, AA 3 μM; for jun expression in response to factors such as IL 1 or arachidonic acid: summary statement
# Source text: as §1
# (§3) Although IL 1 stimulated superoxide production, it was not known whether IL 1 induced fos and jun expression was dependent on the production of superoxides. In order to elucidate this possibility, the effect of DPI on fos and jun mRNA levels induced by IL 1 was investigated. RNA from chondrocytes treated with IL 1 in the presence and absence of DPI were analyzed by Northern blot analysis using either fos or collagenase cDNA probes. […] Similar data has been obtained for IL 1 induced jun expression. Furthermore, inhibition of fos and jun expression by DPI was sufficient to suppress IL 1 induced and constitutive collagenase expression.
# as §2
# cells = assay: Combined effect of H2O2 and orthovanadate on cell toxicity; assay type: cell-based; conditions: 1 mM H2O2, 24 hours; FIG. 9
# Experimental: If the orthovanadate induced formation of hydroxyl radicals is responsible for cell toxicity, then adding exogenous H2 O2 should enhance the effects of orthovanadate. Accordingly, cells were incubated in media alone or containing 1 mM H2 O2 or 10 μM orthovanadate or both for 24 hours. The cells were harvested and cell viability determined.
# collagenase [1] = assay: Northern blot analysis of collagenase mRNA expression in chondrocytes; assay type: cell-based, bovine
# Source text: as §1, §3
# Cells were also incubated as described above with 20 mM N-acetylcyateine for 20 min. and then incubated with IL 1 for an additional 1 or 12 hours. The RNA was extracted and examined by Northern blot analysis using cDNA probes for c-fos and collagenase. N-acetylcysteine which is converted to GSH intracellularly was also found to reduce the levels of fos and collagenase expression in response to IL 1 (FIG. 5). Presumably the higher intracellular levels of GSH reduced H2 O2 and superoxide levels and suppressed the induction of fos and collagenase expression.
# MDAY-D2 [2] = assay: MDAY-D2 tumor growth in mice, combination therapy, Example 7; assay type: in vivo
# Experimental: Twenty mice were injected subcutaneously with 2×10^5 cells on Day 1. At day 4, the mice were divided into four groups of five mice. Group one (control) received subcutaneous injections of 50 μl of water. Group two received daily intraperitoneal injections of 50 μl of 250 mM N-acetylcysteine. Group three received daily subcutaneous injections of 50 μl of 10 mg/ml of orthovanadate. Group four received daily intraperitoneal injections of 50 μl of […] N-acetylcysteine and 20 minutes later received 50 μl of subcutaneous injection of 50 μl of 10 mg/ml of orthovanadate. On day 10 the treatment was stopped. The animals were sacrificed on Day 13 and analyzed for tumor growth.
# superoxides and H2O2 = assay: Levels of superoxides and H2O2 in cells (conclusion of Example 1); assay type: cell-based, bovine; conditions: conclusion from results
# Experimental: as §2, with “Chondrocytes were washed in PBS and the total RNA extracted as previously described (Cruz. et al, 1991, Biochem. J. 277, 327-330). RNA samples were run on formaldehyde agarose gels and transferred to nylon membrane for northern analysis using cDNA probes for c-fos and c-jun.” left out
# collagenase [3] = assay: Collagenase production by chondrocytes (ELISA of conditioned medium); assay type: cell-based, bovine; conditions: stimulation, 24 hours, monolayer culture
# Experimental: as §2, with “Chondrocytes were washed in PBS and the total RNA extracted as previously described (Cruz. et al, 1991, Biochem. J. 277, 327-330). RNA samples were run on formaldehyde agarose gels and transferred to nylon membrane for northern analysis using cDNA probes for c-fos and c-jun.” left out
# PGE2 = PGE2 production by chondrocytes (RIA); assay type: cell-based, bovine; conditions: stimulation, 6 hours, monolayer culture
# Experimental: as §2, with “Chondrocytes were washed in PBS and the total RNA extracted as previously described (Cruz. et al, 1991, Biochem. J. 277, 327-330). RNA samples were run on formaldehyde agarose gels and transferred to nylon membrane for northern analysis using cDNA probes for c-fos and c-jun.” left out
# PLA2 = assay: 3H-arachidonic acid release by chondrocytes (PLA2 activity); assay type: cell-based, bovine; conditions: stimulation, IL 1 10 ng/ml or PMA 100 mg/ml, 10 min
# Experimental: as §2, with “Chondrocytes were washed in PBS and the total RNA extracted as previously described (Cruz. et al, 1991, Biochem. J. 277, 327-330). RNA samples were run on formaldehyde agarose gels and transferred to nylon membrane for northern analysis using cDNA probes for c-fos and c-jun.” left out
# [4] = test system: KB8, KB8-5 and KB85-11 cells; conditions: background statement; cited from earlier work
# [5] = test system: Chondrocytes (reactive oxygen intermediates; NADPH oxidase); assay: FACS analysis of reactive oxygen intermediates/superoxide production in chondrocytes (dihydroxyrhodamine); assay type: cell-based, bovine; conditions: inhibition, FIG. 1
# Experimental: Chondrocytes (i.e. bovine chondrocytes plated as described in Kandel R. A. et al. Biochim. Biophys. Acta. 1053, 130-134, 1990) were incubated with dihydroxyrhodamine for 5 min (DHR) or for 4 hours in the absence (-IL 1 ) or presence of IL 1 (+IL 1), or in the presence of both IL 1 and the NADPH inhibitor, diphenyl iodonium, (+IL 1, +DPI).
# carcinogenesis = conditions: reported by G. Shklar et al.; cited from earlier work
# MDAY-D2 [6] = assay: Liver metastases of MDAY-D2 cells in mice (histology), Example 8; assay type: in vivo
# Source text: (§4) In order to examine the ability of vanadyl compounds to reduce tumor formation, growth and metastases, a specific animal model which allows investigation of all of these processes in the same animal was chosen. This model involves the injection of a metastatic haematopoietic cell line, MDAY-D2, into mice subcutaneously. These cells form a tumor at the site of injection and its size can be easily determined. In addition, these cells metastasize to the liver and metastases can be detected histologically after day 17 to 19. This model provides a very sensitive and reproducible approach to investigate the effect of vanadyl compounds on tumor growth and metastases.
# Livers were removed from animals treated as described above and prepared for histological examination. FIG. 16 compares liver sections from untreated (C), orthovanadate (VO)(500 μg/day) and vanadyl sulphate (VS)(500 μg/day) treated animals. Nodules are identified with an arrow.
# mammary carcinogenesis = conditions: dietary; cited from earlier work
# MDAY-D2 [7] = assay: MDAY-D2 tumor growth in mice, three vanadyl compounds, Example 6B; assay type: in vivo; conditions: for effect on tumor growth, in words: 10 mg/ml s.c. daily; for animals that died: 10 mg/ml, 50 μl s.c. daily for 16 days, groups of five mice
# Source text: as §4
# In a separate experiment using the same animal model, the effect of orthovanadate, vanadyl sulphate and vanadyl hydroperoxide administration on tumor growth in vivo was examined. On Day 1, 20 mice were injected with 2×10^5 MDAY-D2 cell subcutaneously. The mice were divided into four groups of five mice. At day 5, the animals were injected subcutaneously with 50 μl of water alone or containing 10 mg/ml of orthovanadate, 10 mg/ml of vanadyl sulphate, or 10 mg/ml of vanadyl hydroperoxide. This treatment was continued daily for 16 days. At day 21, the mice were sacrificed and the tumors dissected and weighed.
# MDAY-D2 cells = assay: Viability of MDAY-D2 cells with different vanadyl compounds; assay type: cell-based, mouse; conditions: 0-50 μM, 48 hours; FIG. 8
# Experimental: Three different forms of vanadyl compounds were examined for their effect on viability of cancer cell lines. MDAY-D2 cells were incubated in media containing 0-50 μM orthovanadate, vanadyl sulphate, or vanadyl hydroperoxide for 48 hours. The cells were harvested and the number of viable cells determined. […] Although there were slight differences in sensitivity, the overall cell death was similar.
# [8] = 20 mM N-acetylcysteine for 20 min, FIG. 5
molecule,measurement,setting,value
"CCCCC/C=C\C/C=C\C/C=C\C/C=C\CCCC(=O)O [AA, arachidonic acid]",expression of c-fos,fos,stimulated
same,expression of c-jun,jun,stimulated
"OO [H2 O2, hydrogen peroxide]",cell toxicity of H2O2 alone,cells,small effect
same,stimulation of fos expression,"fos; H2O2 for 30, 60 and 90 minutes, FIG. 3",stimulates
CC(=O)N[C@@H](CS)C(=O)O [N-acetylcysteine],levels of collagenase expression in response to IL 1,collagenase [1]; [8],reduce
same,effect on slight toxic effects observed with orthovanadate alone,MDAY-D2 [2]; N-acetylcysteine co-administered,appeared to reduce the slight toxic effects
same,"tumor growth inhibition in vivo, in words",MDAY-D2 [2]; combination therapy,capable of reducing tumor growth to some extent
same,levels of superoxides and H2O2 in cells,superoxides and H2O2,indirectly reduce
same,levels of fos expression in response to IL 1,fos; [8],reduce
same,fos expression in response to factors such as IL 1 or arachidonic acid,fos,completely inhibit
same,jun expression in response to factors such as IL 1 or arachidonic acid,jun,completely inhibit
"CCCCCCCCCCCCCC(=O)OC1C(C)C2(O)C(C=C(CO)CC3(O)C(=O)C(C)=CC32)C2C(C)(C)C12OC(C)=O (centres unmarked) [PMA, reference compound]",production of collagenase,collagenase [3],induced
same,production of PGE2,PGE2,induced
same,expression of c-fos,fos,stimulated
same,expression of c-jun,jun,stimulated
same,release of 3H-AA,PLA2,induced
COc1cc2c(c(OC)c1OC)-c1ccc(OC)c(=O)cc1[C@@H](NC(C)=O)CC2 [colchicine],killing of drug resistant cell lines by conventional chemotherapeutic agents,[4],not killed
"c1ccc([I+]c2ccccc2)cc1 [diphenyl iodonium (DPI), diphenyl iodonium]",IL 1 induced and constitutive collagenase expression,"collagenase [1]; Northern blot, FIG. 2",suppress
same,constitutive and IL 1 induced reactive oxygen intermediates,[5],completely inhibits
same,IL 1 induction of fos,"fos; Northern blot, FIG. 2",suppressed
same,fos expression in response to factors such as IL 1 or arachidonic acid,fos,completely inhibit
same,jun expression in response to factors such as IL 1 or arachidonic acid,jun,completely inhibit
COc1cccc2c1C(=O)c1c(O)c3c(c(O)c1C2=O)C[C@@](O)(C(=O)CO)C[C@@H]3O[C@H]1C[C@H](N)[C@H](O)[C@H](C)O1 [doxorubicin],killing of drug resistant cell lines by conventional chemotherapeutic agents,[4],not killed
N[C@@H](CCC(=O)N[C@@H](CS)C(=O)NCC(=O)O)C(=O)O [glutathione],anticancer activity,carcinogenesis,reported to have anticancer activity
O=S(=O)([O-])[O-].[O]=[V+2] [vanadyl sulphate],levels of metastases in liver,"MDAY-D2 [6]; 500 μg/day, FIG. 16",did not have detectable levels of metastases
same,effectiveness at preventing metastases,"MDAY-D2 [6]; preliminary results, liver histology",effective at preventing metastases
same,inhibition of chemically induced mammary carcinogenesis,mammary carcinogenesis,inhibit
same,"effect on tumor growth, in words",MDAY-D2 [7],reduced tumors size in all of the animals; also recorded: less effective
same,animals that died,MDAY-D2 [7],One animal died
same,effectiveness in killing MDAY-D2 cells,MDAY-D2 cells,equally effective
CC[C@]1(O)C[C@@H]2CN(CCc3c([nH]c4ccccc34)[C@@](C(=O)OC)(c3cc4c(cc3OC)N(C)[C@H]3[C@@](O)(C(=O)OC)[C@H](OC(C)=O)[C@]5(CC)C=CCN6CC[C@]43[C@@H]65)C2)C1 [vinblastine],killing of drug resistant cell lines by conventional chemotherapeutic agents,[4],not killed
"O=C1O[C@H]([C@@H](O)CO)C(O)=C1O [vitamin C, ascorbic acid]",anticancer activity,carcinogenesis,reported to have anticancer activity
Cc1c(C)c2c(c(C)c1O)CCC(C)(CCCC(C)CCCC(C)CCCC(C)C)O2 (stereo not drawn) [α-tocopherol],anticancer activity,carcinogenesis,reported to have anticancer activity
CC1=C(/C=C/C(C)=C/C=C/C(C)=C/C=C/C=C(C)/C=C/C=C(C)/C=C/C2=C(C)CCCC2(C)C)C(C)(C)CCC1 [β-carotene],anticancer activity,carcinogenesis,reported to have anticancer activity
vanadyl hydroperoxide,"effect on tumor growth, in words",MDAY-D2 [7],too toxic to evaluate its efficacy
same,animals that died,MDAY-D2 [7],all five died
same,effectiveness in killing MDAY-D2 cells,MDAY-D2 cells,equally effective
vitamin E,anticancer activity,carcinogenesis,reported to have anticancer activity
